The source of these data is patent publication US7794967B2, “Method and kit for detection of novel pathogen inhibitors” (priority 2001, dated 2010).

SMILES strings stand for the structures. Where two headings read alike, the source gives them in different places.

For experiment [1], the target named is T1, mammalian poly(A)-specific ribonuclease (PARN) (Bos taurus, UniProt P69341).
T1 sequence (P69341 1-430 limits assumed): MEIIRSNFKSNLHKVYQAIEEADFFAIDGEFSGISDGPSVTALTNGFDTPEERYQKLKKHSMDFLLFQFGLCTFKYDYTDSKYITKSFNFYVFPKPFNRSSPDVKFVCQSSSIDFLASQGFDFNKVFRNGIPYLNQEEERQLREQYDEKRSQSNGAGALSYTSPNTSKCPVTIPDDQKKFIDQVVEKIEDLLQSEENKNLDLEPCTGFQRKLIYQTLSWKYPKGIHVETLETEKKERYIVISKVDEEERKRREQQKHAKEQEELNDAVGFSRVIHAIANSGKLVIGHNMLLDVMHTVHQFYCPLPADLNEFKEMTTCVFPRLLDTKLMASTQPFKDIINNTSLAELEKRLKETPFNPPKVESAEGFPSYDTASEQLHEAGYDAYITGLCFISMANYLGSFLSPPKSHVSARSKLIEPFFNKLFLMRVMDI
Description: Inhibition of PARN deadenylation activity. The note with it: for IC50: appKi = aminoglycoside concentration resulting in 50% inhibition of PARN activity, pH 7.0. It is filed as biochemical, calf thymus. The source says:
Homogeneously purified calf thymus PARN 54 kDa active fragment was used as the source of PARN (Martinez et al. 2000). Recombinant full length human PARN was expressed and purified as described (Martinez et al. 2000). As the substrate we used L3(A30) RNA radioactively labelled in its poly(Å) tail (Åström et al. 1991). Assay conditions and 1-D TLC quantitation procedures were as previously described (Åström et al. 1992). The pH of the deadenylation reactions were 7.0, unless stated otherwise. The consumption of L3(A30) RNA substrate was controlled so that no more than 20% of it was consumed.

The target of experiment [2] is 31-mer RNA representing the P15-loop of RNase P RNA. Description: Inhibition of Pb2+-induced cleavage of the 31-mer model RNA (P15-loop). It is filed as binding, Escherichia coli. The note with it: aminoglycoside concentration that gives 50% inhibition of Pb2+-induced cleavage; read-out: appKi 31-mer RNA.
Experiment [3] concerns the target Bam HI restriction enzyme (Bacillus amyloliquefaciens, UniProt P23940). Description: In vitro inhibition of Bam HI restriction enzyme. It is filed as biochemical. The note with it: addition of 0.1-5 mM neomycin B. The source says: (§1) The mechanisms behind toxicity and severe side-effects are not understood and several potential causes have been discussed in the literature.

Experiment [4] has as its target T2, HIV reverse transcriptase (Human immunodeficiency virus type 1 group M subtype B, UniProt P04585).
T2 construct: HIV reverse transcriptase
Description: In vitro inhibition of HIV reverse transcriptase. It is filed as biochemical. The conditions noted are these: addition of 0.1-5 mM neomycin B.
Description: as §1

The target of another experiment is bacterial RNase H (Escherichia coli, UniProt P0A7Y4). Briefly: In vitro inhibition of bacterial RNase H. It is filed as biochemical. The conditions noted are these: addition of 0.1-5 mM neomycin B.
Chain of bacterial RNase H (P0A7Y4 whole entry): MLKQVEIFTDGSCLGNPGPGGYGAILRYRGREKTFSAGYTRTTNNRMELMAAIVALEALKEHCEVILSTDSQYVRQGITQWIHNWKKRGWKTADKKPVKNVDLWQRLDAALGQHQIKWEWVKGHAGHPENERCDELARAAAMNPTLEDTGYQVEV
Description: as §1

Experiment [5] concerns the target mammalian poly(A) polymerase (Homo sapiens, UniProt P51003). Description: In vitro inhibition of mammalian poly(A) polymerase. It is filed as biochemical. The note with it: addition of 0.1-5 mM neomycin B.
Description: as §1

For the next experiment, the target named is Taq DNA polymerase (Thermus aquaticus, UniProt P19821). Briefly: In vitro inhibition of Taq DNA polymerase. It is filed as biochemical. The note with it: addition of 0.1-5 mM neomycin B.
Chain of Taq DNA polymerase (P19821 whole entry): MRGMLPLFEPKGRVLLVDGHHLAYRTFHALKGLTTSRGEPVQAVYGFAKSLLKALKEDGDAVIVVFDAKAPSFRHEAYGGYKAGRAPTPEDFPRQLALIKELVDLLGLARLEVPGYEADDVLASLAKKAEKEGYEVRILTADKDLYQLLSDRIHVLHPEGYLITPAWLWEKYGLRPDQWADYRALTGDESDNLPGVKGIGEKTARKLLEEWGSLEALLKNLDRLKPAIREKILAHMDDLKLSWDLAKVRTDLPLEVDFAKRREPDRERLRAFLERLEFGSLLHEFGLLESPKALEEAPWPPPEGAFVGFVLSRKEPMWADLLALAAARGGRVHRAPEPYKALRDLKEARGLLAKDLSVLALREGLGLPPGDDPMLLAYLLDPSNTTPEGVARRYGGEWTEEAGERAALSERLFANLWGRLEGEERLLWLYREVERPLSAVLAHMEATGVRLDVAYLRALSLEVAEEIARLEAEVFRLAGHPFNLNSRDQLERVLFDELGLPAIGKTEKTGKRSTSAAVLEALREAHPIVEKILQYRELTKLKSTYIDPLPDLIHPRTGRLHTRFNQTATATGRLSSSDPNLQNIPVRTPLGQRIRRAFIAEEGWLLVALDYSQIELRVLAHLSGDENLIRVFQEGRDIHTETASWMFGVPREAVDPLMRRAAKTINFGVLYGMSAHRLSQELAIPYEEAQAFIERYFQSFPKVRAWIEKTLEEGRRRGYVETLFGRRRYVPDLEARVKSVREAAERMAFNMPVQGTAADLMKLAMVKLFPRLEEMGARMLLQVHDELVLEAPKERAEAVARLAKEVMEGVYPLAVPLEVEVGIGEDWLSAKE
Description: as §1

The target of a further experiment is T7 RNA polymerase (Escherichia phage T7, UniProt P00573). Briefly: In vitro inhibition of T7 RNA polymerase. It is filed as biochemical. The conditions noted are these: addition of 0.1-5 mM neomycin B.
Chain of T7 RNA polymerase (P00573 whole entry): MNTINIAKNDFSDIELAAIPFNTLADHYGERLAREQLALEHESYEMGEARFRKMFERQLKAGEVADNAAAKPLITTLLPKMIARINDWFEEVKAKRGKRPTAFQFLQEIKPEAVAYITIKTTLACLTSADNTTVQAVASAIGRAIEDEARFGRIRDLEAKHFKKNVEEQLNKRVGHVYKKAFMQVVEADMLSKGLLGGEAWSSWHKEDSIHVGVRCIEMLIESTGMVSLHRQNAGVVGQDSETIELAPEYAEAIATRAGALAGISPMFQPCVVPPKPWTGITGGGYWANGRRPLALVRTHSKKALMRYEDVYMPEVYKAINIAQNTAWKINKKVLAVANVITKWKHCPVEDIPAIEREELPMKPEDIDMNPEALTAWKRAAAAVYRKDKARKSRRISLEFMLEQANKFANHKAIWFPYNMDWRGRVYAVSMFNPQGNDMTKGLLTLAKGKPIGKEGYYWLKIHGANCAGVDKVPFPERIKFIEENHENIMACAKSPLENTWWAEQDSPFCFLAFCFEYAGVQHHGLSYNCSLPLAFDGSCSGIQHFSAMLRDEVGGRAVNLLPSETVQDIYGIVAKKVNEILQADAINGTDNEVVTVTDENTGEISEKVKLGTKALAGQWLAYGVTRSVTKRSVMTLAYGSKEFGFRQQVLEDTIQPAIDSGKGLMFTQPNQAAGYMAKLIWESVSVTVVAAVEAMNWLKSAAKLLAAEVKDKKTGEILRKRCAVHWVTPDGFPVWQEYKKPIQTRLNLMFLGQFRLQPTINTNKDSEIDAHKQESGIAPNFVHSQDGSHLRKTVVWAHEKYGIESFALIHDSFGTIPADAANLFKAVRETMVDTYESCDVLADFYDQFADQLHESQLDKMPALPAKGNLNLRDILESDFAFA
Description: as §1

The next experiment has as its system Klenow pol. Description: Fe(II) mediated hydroxyl radical cleavage of Klenow pol. It is filed as binding, Escherichia coli. The procedure:
2-4 microgram of purified recombinant Klenow pol fragment or mutant thereof, dialysed against buffer F (20 mM HEPES-KOH pH 7.0, 5 mM NaCl) on a Milipore “V” Series Membrane (Millipore) for 30 minutes at 4° C., was incubated for 30 minutes at 37° C. in 50 mM HEPES pH 7.0, 5 mM NaCl, 20 micromolar Fe(NH4)2SO4 and 10 mM DTT in total volume of 10 microliter. The incubations were stopped by the addition of 10 microliter of 2×SDS-loading buffer (100 mM Tris-HCl pH 6.8, 2% (w/v) SDS, 200 mM DTT, 16%(v/v) glycerol, 0.05%(w/v) bromolphenol blue and 50 mM EDTA). The amount of added Mg(II)-ions, Mn(II)-ions or aminoglycoside was as indicated. Reacted polypeptides were fractionated by 10% SDS-polyacrylamide gel electrophoresis and subsequently visualised by silver staining.

The target of the next experiment is T3, PARN (Homo sapiens, UniProt O95453).
T3 construct: Recombinant full length human PARN was expressed and purified as described; made in house; host or cells: E. coli
T3 sequence (O95453 1-639): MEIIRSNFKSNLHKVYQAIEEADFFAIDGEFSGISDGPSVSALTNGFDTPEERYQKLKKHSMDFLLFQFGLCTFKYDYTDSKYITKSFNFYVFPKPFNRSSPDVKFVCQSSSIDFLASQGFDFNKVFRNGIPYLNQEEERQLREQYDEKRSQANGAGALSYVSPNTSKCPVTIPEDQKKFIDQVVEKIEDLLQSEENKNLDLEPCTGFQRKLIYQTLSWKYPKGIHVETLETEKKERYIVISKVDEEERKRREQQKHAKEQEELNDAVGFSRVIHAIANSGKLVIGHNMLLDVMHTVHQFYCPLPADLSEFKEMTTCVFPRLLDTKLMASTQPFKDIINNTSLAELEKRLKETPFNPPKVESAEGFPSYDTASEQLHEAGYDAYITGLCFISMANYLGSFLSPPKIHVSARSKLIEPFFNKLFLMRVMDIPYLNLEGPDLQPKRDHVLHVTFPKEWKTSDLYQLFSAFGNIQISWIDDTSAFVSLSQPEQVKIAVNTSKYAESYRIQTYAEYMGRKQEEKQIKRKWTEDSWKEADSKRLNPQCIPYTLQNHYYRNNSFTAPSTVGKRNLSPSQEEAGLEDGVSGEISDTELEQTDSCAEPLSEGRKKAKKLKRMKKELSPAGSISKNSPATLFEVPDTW
Briefly: Fe(II) mediated hydroxyl radical cleavage of PARN. It is filed as binding. As to the method:
Recombinant PARN polypeptides expressed in E. coli were purified and radioactively labelled in their N-termini. Fe(II) mediated hydroxyl radical cleavage, of PARN was essentially performed as described above. Reacted samples were subjected to 10% SDS-polyacrylamide gel electrophoresis and the resulting gel was subsequently visualized and quantified using a 400 S PhosphorImager (Molecular Dynamics). In the Mg(II) and Mn(II) ions competition experiments, MgCl2 or MnCl2 was added at indicated concentration in the presence of 20 micromolar Fe(NH4)2SO4.

The target of experiment [6] is RNase P RNA. The note with it: values marked *, from Mikkelsen et al., 1999; read-out: appKi inhibition of RNase P RNA cleavage; cited from earlier work.
For experiment [7], the system named is Full-size E. coli RNase P RNA. The conditions noted are these: Mikkelsen et al., 1999; cited from earlier work.
Experiment [8] addresses Escherichia coli Klenow polymerase (pol) (Escherichia coli, UniProt P00582, D355A/E357A). Description: Inhibition of Klenow polymerase activity.
For experiment [9], the target named is RNase P RNA. Briefly: Inhibition of RNase P RNA cleavage. It is filed as biochemical, Escherichia coli. The note with it: value without asterisk; read-out: appKi inhibition of RNase P RNA cleavage. As to the method: The structure of some aminoglycosides that inhibit RNase P cleavage are depicted in FIG. 3. Aminoglycosides bind to RNA and displace functionally important divalent metal ions. Thus, aminoglycosides function as metal mimics (Mikkelsen et al., 2001).
RNase P cleavage and Pb2+-induced cleavage was performed and monitored according to standard protocols as described by Kufel and Kirsebom (1998). To determine the appKi value for a given substance RNase P cleavage or Pb2+-induced cleavage conditions were adjusted in such a way that measurements were carried out in the linear portion of the curve of kinetics of the cleavage reaction.

Where [10] appears, read: read-out: appKi (for KL pol), […], pH 7.0.

Chain of Escherichia coli Klenow polymerase (pol) (P00582 324-928 D355A/E357A): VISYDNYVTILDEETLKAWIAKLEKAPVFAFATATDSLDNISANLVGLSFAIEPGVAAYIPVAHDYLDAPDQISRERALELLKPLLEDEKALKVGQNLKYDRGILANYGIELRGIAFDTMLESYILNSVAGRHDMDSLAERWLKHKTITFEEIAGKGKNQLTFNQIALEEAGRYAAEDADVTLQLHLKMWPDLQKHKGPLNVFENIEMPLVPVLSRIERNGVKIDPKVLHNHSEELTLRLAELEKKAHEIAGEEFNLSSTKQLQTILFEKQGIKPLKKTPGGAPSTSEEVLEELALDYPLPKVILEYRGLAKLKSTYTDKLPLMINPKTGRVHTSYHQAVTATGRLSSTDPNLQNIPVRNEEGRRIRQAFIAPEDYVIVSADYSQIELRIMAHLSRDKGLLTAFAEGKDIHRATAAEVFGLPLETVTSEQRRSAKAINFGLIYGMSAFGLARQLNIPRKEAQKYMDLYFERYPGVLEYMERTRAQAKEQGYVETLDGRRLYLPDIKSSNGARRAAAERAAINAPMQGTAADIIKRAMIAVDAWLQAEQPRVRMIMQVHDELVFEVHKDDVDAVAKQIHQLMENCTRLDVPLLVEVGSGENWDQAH
Chain of mammalian poly(A) polymerase (P51003 whole entry): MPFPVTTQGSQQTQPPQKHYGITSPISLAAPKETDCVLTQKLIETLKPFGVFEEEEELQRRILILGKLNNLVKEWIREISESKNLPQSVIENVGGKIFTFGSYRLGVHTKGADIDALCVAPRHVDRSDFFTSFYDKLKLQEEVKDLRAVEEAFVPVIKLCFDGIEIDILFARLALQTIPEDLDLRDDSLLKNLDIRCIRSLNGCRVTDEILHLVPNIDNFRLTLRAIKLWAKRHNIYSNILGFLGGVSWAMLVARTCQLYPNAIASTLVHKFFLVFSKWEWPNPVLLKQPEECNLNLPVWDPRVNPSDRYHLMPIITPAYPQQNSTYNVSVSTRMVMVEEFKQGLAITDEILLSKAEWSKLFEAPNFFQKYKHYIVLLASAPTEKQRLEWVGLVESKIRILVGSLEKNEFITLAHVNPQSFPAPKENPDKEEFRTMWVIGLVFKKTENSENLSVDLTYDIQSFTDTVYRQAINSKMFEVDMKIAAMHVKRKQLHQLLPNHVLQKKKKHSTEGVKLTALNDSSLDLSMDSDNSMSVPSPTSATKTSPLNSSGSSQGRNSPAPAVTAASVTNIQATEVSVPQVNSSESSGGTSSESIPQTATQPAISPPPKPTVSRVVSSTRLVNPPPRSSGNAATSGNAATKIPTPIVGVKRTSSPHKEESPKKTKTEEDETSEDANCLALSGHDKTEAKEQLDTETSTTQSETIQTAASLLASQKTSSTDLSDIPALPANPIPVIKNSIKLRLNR
Chain of Bam HI restriction enzyme (P23940 whole entry): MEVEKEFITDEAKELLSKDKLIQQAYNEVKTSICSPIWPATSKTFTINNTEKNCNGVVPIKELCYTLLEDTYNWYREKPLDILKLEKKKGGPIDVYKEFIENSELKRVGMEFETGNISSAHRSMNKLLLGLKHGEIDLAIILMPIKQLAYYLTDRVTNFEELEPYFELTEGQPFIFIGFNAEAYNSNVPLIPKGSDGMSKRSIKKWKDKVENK

For `NC[C@@H]1O[C@H](O[C@H]2[C@@H](O)[C@H](O[C@@H]3[C@@H](O)[C@H](N)C[C@H](N)[C@H]3O[C@H]3O[C@H](CN)[C@@H](O)[C@H](O)[C@H]3N)O[C@@H]2CO)[C@H](N)[C@@H](O)[C@@H]1O` [Neomycin B], the “mode of inhibition (enzyme kinetic analyses)” value in [1] (PARN) and in experiment [8] (Klenow pol) was “mixed non-competitive inhibitor” each time. The “pH dependence of inhibition” value in experiment [1] (PARN) and in experiment [8] (Klenow pol) was “pH dependent” throughout. Moreover, the IC50 in experiment [1] is 0.4 ± 0.1 µM; in [2], 40 µM; on RNase P RNA [6] it was 35 ± 12 µM; in experiment [8] (setting [10]), 4800 ± 300 µM. In addition, in experiment [3], the “inhibition of Bam HI restriction enzyme” value is “can be inhibited”. Further, the “inhibition of HIV reverse transcriptase” value in experiment [4] was “can be inhibited”. The “inhibition of bacterial RNase H” value against bacterial RNase H is recorded as “can be inhibited”. In experiment [5], the “inhibition of mammalian poly(A) polymerase” value is reported as “can be inhibited”. For the same compound, the “inhibition of Taq DNA polymerase” value at Taq DNA polymerase was “can be inhibited”. Besides, at T7 RNA polymerase, the “inhibition of T7 RNA polymerase” value is “can be inhibited”. Also, the “effect on iron mediated cleavage at the active site” value with Klenow pol and on PARN was “interfered with iron mediated cleavage” in each case. In addition, the “inhibition of Pb2+-induced cleavage of E. coli RNase P RNA” value in experiment [7] is on record as “inhibited”.
As for `NC[C@H]1O[C@H](O[C@H]2[C@H](O)[C@@H](O[C@H]3O[C@H](CO)[C@@H](O)[C@H](N)[C@H]3O)[C@H](N)C[C@@H]2N)[C@H](O)[C@@H](O)[C@@H]1O` [Kanamycin A], in [8] (setting [10]), the IC50 is 14300 ± 1700 µM.
In the case of `NC[C@H]1O[C@H](O[C@H]2[C@H](O)[C@@H](O[C@H]3O[C@H](CO)[C@@H](O)[C@H](N)[C@H]3O)[C@H](N)C[C@@H]2N)[C@H](N)[C@@H](O)[C@@H]1O` [Kanamycin B], the IC50 stood at 7.3 ± 0.4 µM in [1] and 9200 ± 300 µM in experiment [8] (setting [10]).
On to `NC[C@@H]1O[C@H](O[C@H]2[C@@H](O)[C@H](O[C@@H]3[C@@H](O)[C@H](N)C[C@H](N)[C@H]3O[C@H]3O[C@H](CO)[C@@H](O)C[C@H]3N)O[C@@H]2CO)[C@H](N)[C@@H](O)[C@@H]1O[C@H]1O[C@H](CO)[C@@H](O)[C@H](O)[C@@H]1O` [Lividomycin], for which the IC50 in experiment [1] came to 18.7 ± 2.8 µM; in experiment [8] it was 11600 ± 2000 µM.
Regarding `NC[C@H]1O[C@H](O[C@H]2[C@H](O)[C@@H](O[C@H]3O[C@H](CO)[C@@H](O)[C@H](N)[C@H]3O)[C@H](N)C[C@@H]2N)[C@H](N)C[C@@H]1O` [Tobramycin], the IC50 in experiment [1] was 7.1 ± 0.2 µM; in experiment [8], 9300 ± 700 µM.
For the compound `CN[C@@H]1[C@@H](O)[C@@H](O[C@@H]2[C@H](O)[C@H](O[C@H]3OC(CN)=CC[C@H]3N)[C@@H](N)C[C@H]2N)OC[C@]1(C)O` [5-epi-Sisomicin], the results for the IC50 (in [2]; at RNase P RNA [9]) were 1.2 µM and approximately 3 µM, respectively.
With `CN[C@@H]1[C@@H](O)[C@@H](O[C@@H]2[C@@H](O)[C@H](O[C@H]3OC(CN)=CC[C@H]3N)[C@@H](N)C[C@H]2N)OC[C@]1(C)O` [Sisomicin], the IC50 in [2] worked out at 17 µM.
Consider `NC[C@@H]1O[C@H](O[C@H]2[C@@H](O)[C@H](O[C@@H]3[C@@H](O)[C@H](N)C[C@H](N)[C@H]3O[C@H]3O[C@H](CO)[C@@H](O)[C@H](O)[C@H]3N)O[C@@H]2CO)[C@H](N)[C@@H](O)[C@@H]1O` [Paromomycin], for which the IC50 was 17.3 ± 3.5 µM in [1], 340 µM in experiment [2], 190 ± 12 µM at RNase P RNA [6] and 10300 ± 800 µM in experiment [8].
